The results in this text go back to US20110071158A1, “NEW COMPOUNDS” (BOEHRINGER INGELHEIM INTERNATIONAL GMBH, priority 2009, published 2011).

A value given as a limit tells only on which side of the number the result lay.

In general, IC50 refers to the concentration that inhibits the measured activity by half.

T1 sequence (Q05397 whole entry): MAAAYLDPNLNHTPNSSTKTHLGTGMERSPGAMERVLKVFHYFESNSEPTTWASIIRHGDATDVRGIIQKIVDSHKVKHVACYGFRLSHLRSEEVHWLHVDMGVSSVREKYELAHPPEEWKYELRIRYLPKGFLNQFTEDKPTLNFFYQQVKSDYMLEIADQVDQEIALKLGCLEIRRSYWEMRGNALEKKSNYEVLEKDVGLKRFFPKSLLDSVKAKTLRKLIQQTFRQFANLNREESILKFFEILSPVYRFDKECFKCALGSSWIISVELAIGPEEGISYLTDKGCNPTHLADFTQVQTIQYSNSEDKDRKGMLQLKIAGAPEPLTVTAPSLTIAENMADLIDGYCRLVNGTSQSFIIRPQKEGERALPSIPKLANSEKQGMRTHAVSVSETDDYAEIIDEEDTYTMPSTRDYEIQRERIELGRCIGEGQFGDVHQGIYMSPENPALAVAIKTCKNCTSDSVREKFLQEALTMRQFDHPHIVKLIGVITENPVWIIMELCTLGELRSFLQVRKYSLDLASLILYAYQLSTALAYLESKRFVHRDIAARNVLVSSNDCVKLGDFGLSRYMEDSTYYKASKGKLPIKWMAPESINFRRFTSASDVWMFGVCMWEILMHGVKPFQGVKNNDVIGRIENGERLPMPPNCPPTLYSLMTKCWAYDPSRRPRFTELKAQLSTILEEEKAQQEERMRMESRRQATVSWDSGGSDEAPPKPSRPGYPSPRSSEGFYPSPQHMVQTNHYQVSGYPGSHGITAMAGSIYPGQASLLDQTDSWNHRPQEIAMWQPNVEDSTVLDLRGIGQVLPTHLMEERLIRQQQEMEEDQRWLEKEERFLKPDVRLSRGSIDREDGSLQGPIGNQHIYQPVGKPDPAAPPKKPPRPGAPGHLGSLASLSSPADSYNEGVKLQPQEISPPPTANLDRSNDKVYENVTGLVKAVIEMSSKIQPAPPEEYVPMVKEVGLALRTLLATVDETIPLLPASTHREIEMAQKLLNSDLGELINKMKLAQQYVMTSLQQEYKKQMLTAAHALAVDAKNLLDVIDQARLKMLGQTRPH
T2 sequence (Q6DE08 60-361): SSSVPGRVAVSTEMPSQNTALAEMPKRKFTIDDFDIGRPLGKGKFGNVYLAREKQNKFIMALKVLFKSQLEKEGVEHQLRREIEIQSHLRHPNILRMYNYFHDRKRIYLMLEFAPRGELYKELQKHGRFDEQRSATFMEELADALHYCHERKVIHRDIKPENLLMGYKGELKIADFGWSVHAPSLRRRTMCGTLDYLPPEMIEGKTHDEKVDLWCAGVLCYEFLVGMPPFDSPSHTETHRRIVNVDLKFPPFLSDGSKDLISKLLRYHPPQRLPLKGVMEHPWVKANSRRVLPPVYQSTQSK
T2 sequence (O13024 790-847 partner): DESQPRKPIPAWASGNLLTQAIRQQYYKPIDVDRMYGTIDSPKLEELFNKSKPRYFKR

The first test addresses T1, PTK2 enzyme (Homo sapiens, UniProt Q05397).
T1 construct: purchased Invitrogen PV3832
Kind of test: PTK2 enzyme test, Assay 1 (DELFIA, poly-Glu-Tyr substrate, antibody PT60). The following applies: Assay 1 (values without *); 1 h pre-incubation, 2% DMSO. Type of test: biochemical. The gist of the method: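 Active PTK2 (0.01 µg/well) preincubated 1 h at RT with compound (duplicates, 2% DMSO final), then reacted 1 h at RT with poly(Glu,Tyr) 4:1 plus biotinylated poly(Glu,Tyr) and an ATP mix containing 50 μM ATP. EDTA-stopped, streptavidin-captured product detected by Eu-PT60 anti-phosphotyrosine DELFIA; IC50 by variable-Hill sigmoid fit.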
For `CNC(=O)c1cc(OC)c(Nc2ncc(C(F)(F)F)c(N[C@@H]3CCCC[C@H]3N(C)S(C)(=O)=O)n2)cc1Cl` [Example I-135], half-maximal inhibition (IC50) was put at 1 nM.

Molecule `COc1cc(C(=O)NC2CCN(C)CC2)c(Cl)cc1Nc1ncc(C(F)(F)F)c(N[C@@H]2CCCC[C@H]2N(C)S(C)(=O)=O)n1` [Example I-128] came in with an IC50 of 0.79 nM.

The molecule `COc1cc(C(=O)NC2CCN(C3CC3)CC2)ccc1Nc1ncc(Cl)c(N[C@@H]2CCCC[C@H]2NC(C)=O)n1` [Example I-63] returned an IC50 of 3 nM.

The molecule `CCC(=O)N[C@@H]1CCCC[C@H]1Nc1nc(Nc2cc(F)c(C(=O)NC3CCN(C)CC3)cc2OC)ncc1C(F)(F)F` [Example I-120] came in with an IC50 of 2 nM.

The molecule `COc1cc(C(=O)NCCN(C)C)c(F)cc1Nc1ncc(Cl)c(N[C@@H]2CCC[C@H]2N(C)S(C)(=O)=O)n1` [Example I-170] came in with an IC50 of 2 nM.

Turning to `COc1cc(C(=O)NC2CCN(C)CC2)ccc1Nc1ncc(C(F)(F)F)c(N[C@@H]2CCCC[C@H]2NC(=O)CN(C)C)n1` [Example I-17], half-maximal inhibition (IC50) was put at 15 nM.

In another test the target is T1, PTK2 enzyme. Put plainly: PTK2 enzyme test, Assay 2 (DELFIA, poly-Glu-Tyr substrate, antibody PT66). It is filed as biochemical. The following applies: Assay 2 (values marked *); 1 h pre-incubation, 0.5% DMSO. The source says:
This test uses active PTK2 enzyme (Invitrogen Code PV3832) and poly-Glu-Tyr (4:1, Sigma P-0275) as the kinase substrate. The kinase activity is detected by means of the phosphorylation of the substrate in a DELFIA™ assay. The phosphorylated substrate is detected with the europium-labelled phosphotyrosine antibody PT66 (Perkin Elmer, No.: AD0040).
In order to determine concentration-activity curves with PTK2-inhibitors the compounds are serially diluted first of all in 10% DMSO/H2O and then in kinase dilution buffer (20 mM TRIS/HCl pH 7.5, 0.1 mM EDTA, 0.1 mM EGTA, 0.286 mM sodium orthovanadate, 10% glycerol with the addition of freshly prepared BSA (fraction V, 1 mg/mL) and DTT (1 mM)) and 10 μL of each dilution are dispensed per well in a 96-well microtitre plate (clear U-shaped base plate, Greiner No. 650101) (the inhibitors are tested in duplicates) and mixed with 10 μL/well of PTK2 kinase (0.01 μg/well). PTK2 kinase is diluted accordingly beforehand with kinase dilution buffer. The diluted PTK2 inhibitor and the PTK2 kinase are pre-incubated for 1 h at RT and shaken at 500 revolutions per min. Then 10 μL/well poly-Glu-Tyr substrate (25 μg/well poly-Glu-Tyr, 0.05 μg/well biotinylated poly-Glu-Tyr dissolved in 250 mM TRIS/HCl pH 7.5, 9 mM DTT) are added. The reaction is started by the addition of 20 μL of ATP Mix (30 mM TRIS/HCl pH 7.5, 0.02% Brij, 0.2 mM sodium orthovanadate, 10 mM magnesium acetate, 0.1 mM EGTA, 1× phosphatase inhibitor cocktail 1 (Sigma, No.: P2850), 50 μM ATP (Sigma, No.: A3377; 15 mM stock solution))—the final concentration of DMSO is 0.5%. After 1 h kinase reaction (the plates are shaken at 500 rpm), the reaction is stopped by the addition of 12 μL/well of 100 mM EDTA, pH 8, and shaken for a further 5 min at RT (500 U/min). 55 μL of the reaction mixture are transferred into a streptavidin plate (Strepta Well High Bind (transparent, 96-well) made by Roche, No.: 11989685001) and incubated for 1 h at RT (shaking at 500 rpm). Then the microtitre plate is washed five times with 200 μL/well D-PBS (Invitrogen, No. 14190). 100 μL of a solution containing DELFIA Eu-N1 Anti-Phosphotyrosine PT66 antibody (Perkin Elmer, No.: AD0040, diluted 1:9000 in DELFIA test buffer (Perkin Elmer, No.: 1244-111)) is then added and it is incubated for 1 h at RT (shaking at 500 rpm). Then the plate is washed five times with 200 μL/well DELFIA washing buffer (Perkin Elmer, No.: 1244-114), 200 μL/well strengthening solution (Perkin Elmer, No.: 1244-105) is added and the whole is incubated for 10 min at RT (shaking at 300 rpm).
The time-delayed europium fluorescence is then measured in a microtitre plate reader (Victor, Perkin Elmer). The positive control consists of wells that contain solvent (0.5% DMSO in test buffer) and display uninhibited kinase activity. Wells that contain test buffer instead of enzyme act as a control for the background kinase activity.
The IC50 values are determined from concentration-activity analyses by iterative calculation using a sigmoid curve analysis algorithm (FIFTY, based on Graph PAD Prism Version 3.03) with a variable Hill coefficient.
For the molecule `COCCNC(=O)c1ccc(OC)c(Nc2ncc(C(F)(F)F)c(N[C@@H]3CCCC[C@H]3NS(C)(=O)=O)n2)c1` [Example I-181], the IC50 was 0.43 nM.

Molecule `COc1ccc(C(=O)N(C)C2CCN(C)CC2)cc1Nc1ncc(C(F)(F)F)c(N[C@@H]2CCC[C@H]2N(C)S(C)(=O)=O)n1` [Example I-176] registered an IC50 of 0.44 nM.

`COCCN1CCC(NC(=O)c2cc(OC)c(Nc3ncc(C(F)(F)F)c(N[C@@H]4CCC[C@H]4N(C)S(C)(=O)=O)n3)cc2F)CC1` [Example I-130] yielded an IC50 of 0.24 nM.

Regarding `COc1ccc(C(=O)NC2CCN(C)CC2)cc1Nc1ncc(Cl)c(N[C@@H]2CCC[C@H]2N(C)S(C)(=O)=O)n1` [Example I-179], inhibition was half-maximal at 0.46 nM (IC50).

The molecule `COc1cc(C(=O)NC2CCN(C)CC2)ccc1Nc1ncc(C(F)(F)F)c(N[C@@H]2CC=CC[C@H]2N(C)S(C)(=O)=O)n1` [Example I-151] displayed an IC50 of 0.67 nM.

Consider `COc1cc(N2CCN(C(C)(C)C)CC2)c(C)cc1Nc1ncc(Cl)c(N[C@@H]2CCCC[C@H]2N(C)S(C)(=O)=O)n1` [Example I-184], for which the IC50 came to 1 nM.

`COc1cc(N2CCN(C(C)(C)C)CC2)c(Cl)cc1Nc1ncc(Cl)c(N[C@@H]2CCCC[C@H]2N(C)S(C)(=O)=O)n1` [Example I-185]: the IC50 was found to be 1 nM.

Regarding `COc1ccc(NC(=O)C2CCN(C)CC2)cc1Nc1ncc(Cl)c(N[C@@H]2CCCC[C@H]2N(C)S(C)(=O)=O)n1` [Example I-192], the IC50 stood at 2 nM.

`COc1cc(NC(C)=O)c(F)cc1Nc1ncc(C(F)(F)F)c(N[C@@H]2CCCC[C@H]2N(C)S(C)(=O)=O)n1` [Example I-159] gave an IC50 of 0.9 nM.

`CNC(=O)c1cc(Nc2ncc(C(F)(F)F)c(N[C@@H]3CCCC[C@H]3NS(C)(=O)=O)n2)c(OC)cc1F` [Example I-194] gave an IC50 of 0.71 nM.

Regarding `CCc1cc(Nc2ncc(C(F)(F)F)c(N[C@@H]3CCCC[C@H]3N(C)S(C)(=O)=O)n2)c(OC)cc1N1CCN(C)CC1` [Example I-160], it took 0.71 nM to reach half-maximal inhibition (IC50).

`COc1cc(N2CCN(C)CC2)c(Cl)cc1Nc1ncc(C(F)(F)F)c(N[C@@H]2CCC[C@H]2N(C)S(C)(=O)=O)n1` [Example I-139] yielded an IC50 of 0.49 nM.

Molecule `COc1cc(F)c(C(=O)NC2CCOCC2)cc1Nc1ncc(C(F)(F)F)c(N[C@@H]2CCCC[C@H]2NS(C)(=O)=O)n1` [Example I-193] yielded a concentration for half-maximal inhibition (IC50) of 0.72 nM.

Turning to `COc1ccc(C(=O)NC2CCN(C)CC2)cc1Nc1ncc(C(F)(F)F)c(N[C@@H]2CCCC[C@H]2NC(C)=O)n1` [Example I-180], the IC50 was determined as 0.43 nM.

Consider `COc1cc(C(=O)NN2CCN(C)CC2)c(F)cc1Nc1ncc(C(F)(F)F)c(N[C@@H]2CCC[C@H]2N(C)S(C)(=O)=O)n1` [Example I-136], for which inhibition was half-maximal at 0.28 nM (IC50).

With `COc1ccc(NC(=O)[C@@H]2CCCN2C)cc1Nc1ncc(Cl)c(N[C@@H]2CCCC[C@H]2N(C)S(C)(=O)=O)n1` [Example I-191], the half-inhibitory concentration (IC50) is 10 nM.

A further test addresses T2, Xenopus laevis Aurora B/INCENP complex (Xenopus laevis, UniProt Q6DE08).
T2 construct: equipped at the N-terminal position with a GST tag (amino acids 60-361); GST (N, cleaved yes); made in house; host or cells: E. coli BL21 (DE3)
Kind of test: Aurora-B kinase assay (radioactive enzyme inhibition). Type of test: biochemical.
Conditions: not given
An excerpt:
A radioactive enzyme inhibition assay was developed using E. coli-expressed recombinant Xenopus laevis Aurora B wild-type protein equipped at the N-terminal position with a GST tag (amino acids 60-361) in a complex with Xenopus laevis INCENP (amino acids 790-847), which is obtained from bacteria and purified. In equivalent manner a Xenopus laevis Aurora B mutant (G96V) in a complex with Xenopus laevis INCENP^790-847 may also be used.
The coding sequence for Aurora-B^60-361 from Xenopus laevis is cloned into a modified version of pGEX-6T (Amersham Biotech) via BamHI and SalI cutting sites. The vector contains two cloning cassettes which are separated by a ribosomal binding site, allowing bi-cistronic expression. In this configuration Xenopus laevis Aurora B is expressed by the first cassette, and the Xenopus laevis INCENP^790-847 is expressed by the second cassette. The resulting vector is pAUB-IN^847.
First of all the E. coli strain BL21 (DE3) is co-transformed with pUBS520 helper plasmid and pAUB-IN^847, after which protein expression is induced using 0.3 mM IPTG at an OD600 of 0.45-0.7. The expression is then continued for approx. 12-16 h at 23-25° C. with agitation.
The bacteria are then removed by centrifuging and the pellet is lysed in lysis buffer (50 mM Tris/Cl pH 7.6, 300 mM NaCl, 1 mM DTT, 1 mM EDTA, 5% glycerol, Roche Complete Protease Inhibitor tablets) using ultrasound, using 20-30 mL lysis buffer per litre of E. coli culture. The lysed material is freed from debris by centrifugation (12000 rpm, 45-60 min, JA20 rotor). The supernatant is incubated with […] of equilibrated GST Sepharose Fast Flow (Amersham Biosciences) per litre of E. coli culture for 4-5 h at 4° C. Then the column material is washed with 30 volumes of lysis buffer and then equilibrated with 30 volumes of cleavage buffer (50 mM Tris/Cl pH 7.6, 150 mM NaCl, 1 mM DTT, 1 mM EDTA). To cleave the GST tag from Aurora B, 10 units of Prescission Protease (Amersham Biosciences) are used per milligram of substrate and the mixture is incubated for 16 h at 4° C. The supernatant which contains the cleavage product is loaded onto a 6 mL Resource Q column (Amersham Biosciences) equilibrated with ion exchange buffer (50 mM Tris/Cl pH 7.6, 150 mM NaCl, 1 mM DTT, 1 mM EDTA). The Aurora B/INCENP complex is caught as it flows through, then concentrated and loaded onto a Superdex 200 size exclusion chromatography (SEC) column equilibrated with SEC buffer (10 mM Tris/Cl pH 7.6, 150 mM NaCl, 1 mM DTT, 1 mM EDTA). Fractions which contain the AuroraB/INCENP complex are collected and concentrated using Vivaspin concentrators (molecular weight exclusion 3000-5000 Da) to a final concentration of 12 mg/mL. Aliquots (e.g. 240 ng/μL) for kinase assays are transferred from this stock solution into freezing buffer (50 mM Tris/Cl pH 8.0, 150 mM NaCl, 0.1 mM EDTA, 0.03% Brij-35, 10% glycerol, 1 mM DTT) and stored at −80° C.
Test substances are placed in a polypropylene dish (96 wells, Greiner #655 201), in order to cover a concentration frame of 10 μM-0.0001 μM. The final concentration of DMSO in the assay is 5%. 30 μL of protein mix (50 mM Tris/Cl pH 7.5, 25 mM MgCl2, 25 mM NaCl, 167 μM ATP, 10 ng Xenopus laevis Aurora B/INCENP complex in freezing buffer) are pipetted into the 10 μl of test substance provided in 25% DMSO and this is incubated for 15 min at RT. Then 10 μL of peptide mix (100 mM Tris/Cl pH 7.5, 50 mM MgCl2, 50 mM NaCl, 5 μM NaF, 5 μM DTT, 1 μCi gamma-P33-ATP [Amersham], 50 μM substrate peptide [biotin-EPLERRLSLVPDS or multimers thereof, or biotin-EPLERRLSLVPKM or multimers thereof, or biotin-[…]]) are added. The reaction is incubated for 75 min (ambient temperature) and stopped by the addition of 180 μL of 6.4% trichloroacetic acid and incubated for 20 min on ice. […]
In the case of `CNC(=O)c1cc(OC)c(Nc2ncc(C(F)(F)F)c(N[C@@H]3CCCC[C@H]3N(C)S(C)(=O)=O)n2)cc1Cl` [Example I-135], the IC50 came to 1030 nM.

`COc1cc(C(=O)NC2CCN(C)CC2)c(Cl)cc1Nc1ncc(C(F)(F)F)c(N[C@@H]2CCCC[C@H]2N(C)S(C)(=O)=O)n1` [Example I-128]: the IC50 is over 5000 nM.
